Residues, ends and D or L forms follow the SMILES beside them.
Test: Water solubility (statement)
Format: physicochemical

- water solubility: water soluble
Structure (SMILES): N[C@@H](CC(=O)O)C(=O)N[C@@H](CO)C(=O)N[C@@H](CO)C(=O)N[C@@H](CC(=O)O)C(=O)N[C@@H](CO)C(=O)N[C@@H](CO)C(=O)N[C@@H](CC(=O)O)C(=O)N[C@@H](CO)C(=O)N[C@@H](CO)C(=O)N[C@@H](CC(=O)O)C(=O)N[C@@H](CO)C(=O)N[C@@H](CO)C(=O)N[C@@H](CC(=O)O)C(=O)N[C@@H](CO)C(=O)N[C@@H](CO)C(=O)N[C@@H](CC(=O)O)C(=O)N[C@@H](CO)C(=O)N[C@@H](CO)C(=O)N[C@@H](CC(=O)O)C(=O)N[C@@H](CO)C(=O)N[C@@H](CO)C(=O)N[C@@H](CC(=O)O)C(=O)N[C@@H](CO)C(=O)N[C@@H](CO)C(=O)O [8DSS] (H-DSSDSSDSSDSSDSSDSSDSSDSS-OH; N-terminus and C-terminus assumed)

Source: US20250318998A1, “REMINERALIZING RESTORATIVE COMPOSITIONS AND METHODS THEREOF” (ADA FORSYTH INSTITUTE, INC., priority 2023, published 2025)
